From patent publication US20240148821A1, “PHARMACEUTICAL USE OF CYCLIC PEPTIDE COMPOUND” (CHUGAI SEIYAKU KABUSHIKI KAISHA, priority 2021, published 2024) come the findings set out here.

Numbered stars: 1 amine (or outer) side, 2 acyl side, 3 side chain; on linkers, the order of the positions; unused ones are H or OH. Bridge positions count the residues as written; N and C are the ends. Square brackets hold non-standard residues; d marks the D form. Peptide text beside a SMILES is read from it. * marks the point of attachment. hPhe(3-Cl-4-CF3) = N[C@@H](CCc1ccc(C(F)(F)F)c(Cl)c1)C(=O)O; hPhe(3-F,4-CF3) = N[C@@H](CCc1ccc(C(F)(F)F)c(F)c1)C(=O)O; X52 = CN([C@@H](Cc1ccccc1OC(F)(F)F)C(=O)[*:2])[*:1]; Thiomorpholino(1,1-dioxo) = O=S1(=O)CCN(*)CC1; NMePhe(4-Cl) = CN[C@@H](Cc1ccc(Cl)cc1)C(=O)O; X51 = CN([C@@](C)(Cc1ccccc1)C(=O)[*:2])[*:1]; NMePhe(4-Me) = CN[C@@H](Cc1ccc(C)cc1)C(=O)O; Phe(3-I) = N[C@@H](Cc1cccc(I)c1)C(=O)O; dβ3hPip = O=C(C[C@H]1CCCCN1[*:1])[*:2]; NMeAla(cPr) = CN[C@@H](CC1CC1)C(=O)O; NMeY = CN[C@@H](Cc1ccc(O)cc1)C(=O)O; NMeCha = CN[C@@H](CC1CCCCC1)C(=O)O; NMeChg = CN[C@H](C(=O)O)C1CCCCC1; NMeI = CC[C@H](C)[C@H](NC)C(=O)O; NMeD = CN[C@@H](CC(=O)O)C(=O)O; NMeL = CN[C@@H](CC(C)C)C(=O)O; Chg = N[C@H](C(=O)O)C1CCCCC1; NMeV = CN[C@H](C(=O)O)C(C)C; d(β3hA) = C[C@@H](N)CC(=O)O; Morpholide = C1CN(*)CCO1; NMeA = CN[C@@H](C)C(=O)O; Nle = CCCC[C@H](N)C(=O)O; Piperidide = C1CCN(*)CC1; dNMeA = CN[C@H](C)C(=O)O; Ac5c = NC1(C(=O)O)CCCC1; Aze = O=C(O)[C@@H]1CCN1; Sar = CNCC(=O)O

The subject of this assay is Human pancreatic cancer cell line AsPC-1 (G12D mutation Kras). In words: AsPC-1 cell growth inhibition (AsPC-1 CGI). It is filed as cell-based. Particulars: read-out: AsPC-1 cell growth inhibition, 50% growth inhibitory concentration (IC50 value); 96 hours, CellTiter-Glo, values classified in ranges. For orientation: Cellular ATP, detected with luciferase, serves as a proxy for viable cell number.
Method: Test compounds were serially dilated with dimethyl sulfoxide, and 200 nL was then dispensed to a U-bottom 96-well plate using Labcyte Echo. […] The cell suspension was dispensed to a. plate containing a test compound at 100 μL per well and incubated at 37° C. in a 5% carbon dioxide gas incubator. 96 hours later, 80 μL of CellTiter-Glo (Promega) was added to each well and fluorescence was measured.
On to `CC[C@H](C)[C@@H]1NC(=O)[C@H](CC(C)C)N(C)C(=O)C[C@@H](C(=O)N2CCCCC2)N(C)C(=O)[C@H](C2CCCCC2)NC(=O)C2(CCCC2)NC(=O)[C@@H]2CCCN2C(=O)[C@H](CCc2ccc(C(F)(F)F)c(Cl)c2)NC(=O)CN(C)C(=O)[C@H](CC2CCCCC2)N(C)C(=O)CN(C)C(=O)CN(C)C1=O` [Compound 1354] ([NMeL]I[Sar][Sar][NMeCha][Sar][hPhe(3-Cl-4-CF3)]P[Ac5c][Chg][NMeD]-Piperidide; lactam N-11), for which the IC50 was more than 500 nM.
For the molecule `CC[C@H](C)[C@@H]1NC(=O)[C@H](C)N(C)C(=O)C[C@@H](C(=O)N2CCOCC2)N(C)C(=O)[C@H](C(C)C)N(C)C(=O)C2(CCCC2)NC(=O)[C@@H]2CCCN2C(=O)[C@H](CCc2ccc(C(F)(F)F)c(Cl)c2)NC(=O)[C@@H](C)N(C)C(=O)[C@H](CC2CCCCC2)N(C)C(=O)[C@@H]2CCCN2C(=O)CN(C)C1=O` [Compound 1788] ([NMeA]I[Sar]P[NMeCha][dNMeA][hPhe(3-Cl-4-CF3)]P[Ac5c][NMeV][NMeD]-Morpholide; lactam N-11), the IC50 is more than 500 nM.
With `CC[C@H](C)[C@@H]1NC(=O)[C@H](CC2CC2)N(C)C(=O)C[C@@H](C)NC(=O)[C@H](C(C)C)N(C)C(=O)C2(CCCC2)NC(=O)[C@@H]2CCCN2C(=O)[C@H](CCc2ccc(C(F)(F)F)c(Cl)c2)NC(=O)CN(C)C(=O)[C@H](CC2CCCCC2)N(C)C(=O)CN(C)C(=O)CN(C)C1=O` [Compound 248] (cyclo([Ac5c][NMeV][d(β3hA)][NMeAla(cPr)]I[Sar][Sar][NMeCha][Sar][hPhe(3-Cl-4-CF3)]P)), the IC50 was more than 500 nM.
As for `CC[C@H](C)[C@@H]1NC(=O)[C@H](CC(C)C)N(C)C(=O)C[C@@H](C(=O)N2CCS(=O)(=O)CC2)N(C)C(=O)[C@H](C2CCCCC2)N(C)C(=O)C2(CCCC2)NC(=O)[C@@H]2CCCN2C(=O)[C@H](CCc2ccc(C(F)(F)F)c(Cl)c2)NC(=O)CN(C)C(=O)[C@H](CC2CCCCC2)N(C)C(=O)CN(C)C(=O)CN(C)C1=O` [Compound 1263] ([NMeL]I[Sar][Sar][NMeCha][Sar][hPhe(3-Cl-4-CF3)]P[Ac5c][NMeChg][NMeD]-{Thiomorpholino(1,1-dioxo)}; lactam N-11), the figure is more than 500 nM; as for `CC[C@H](C)[C@@H]1NC(=O)[C@H](CC(C)C)N(C)C(=O)C[C@H]2CCCCN2C(=O)[C@H](C(C)C)N(C)C(=O)C2(CCCC2)NC(=O)[C@@H]2CCCN2C(=O)[C@H](CCc2ccc(C(F)(F)F)c(F)c2)NC(=O)CN(C)C(=O)[C@H](CC2CCCCC2)N(C)C(=O)CN(C)C(=O)CN(C)C1=O` [Compound 142] (cyclo([Ac5c][NMeV][dβ3hPip][NMeL]I[Sar][Sar][NMeCha][Sar][hPhe(3-F,4-CF3)]P)), more than 500 nM.
Turning to `CCCC[C@@H]1NC(=O)[C@H](Cc2cccc(I)c2)NC(=O)CN(C)C(=O)[C@H](Cc2ccc(Cl)cc2)N(C)C(=O)CN(C)C(=O)CN(C)C(=O)[C@H]([C@@H](C)CC)NC(=O)[C@H](CC(C)C)N(C)C(=O)C[C@@H](C(=O)N2CCCCC2)N(C)C(=O)[C@H](CC(C)C)NC(=O)[C@H](Cc2ccccc2OC(F)(F)F)N(C)C1=O` [Compound 111] ([NMeL]I[Sar][Sar][NMePhe(4-Cl)][Sar][Phe(3-I)][Nle][X52]L[NMeD]-Piperidide; lactam N-11), the IC50 was more than 500 nM.
As for `CC[C@H](C)[C@@H]1NC(=O)[C@H](CC(C)C)N(C)C(=O)C[C@@H](C(=O)N(C)C)N(C)C(=O)[C@H]([C@@H](C)CC)N(C)C(=O)C2(CCCC2)NC(=O)[C@H](C)N(C)C(=O)[C@H](CCc2ccc(C(F)(F)F)c(Cl)c2)NC(=O)CN(C)C(=O)[C@H](Cc2ccc(C)cc2)N(C)C(=O)[C@@H]2CCN2C(=O)[C@H](C)N(C)C1=O` [Compound 378] ([NMeL]I[NMeA][Aze][NMePhe(4-Me)][Sar][hPhe(3-Cl-4-CF3)][NMeA][Ac5c][NMeI][NMeD]-NMe2; lactam N-11), the IC50 is not above 20 nM.
In the case of `CC[C@H](C)[C@@H]1NC(=O)[C@H](CC(C)C)N(C)C(=O)C[C@@H](C(=O)N2CCCCC2)N(C)C(=O)[C@H](C2CCCCC2)N(C)C(=O)C2(CCCC2)NC(=O)[C@@H]2CCCN2C(=O)[C@H](CCc2ccc(C(F)(F)F)c(Cl)c2)NC(=O)[C@H](C)N(C)C(=O)[C@H](CC2CCCCC2)N(C)C(=O)CN(C)C(=O)CN(C)C1=O` [Compound 722] ([NMeL]I[Sar][Sar][NMeCha][NMeA][hPhe(3-Cl-4-CF3)]P[Ac5c][NMeChg][NMeD]-Piperidide; lactam N-11), the IC50 is more than 500 nM.
In the case of `CCCC[C@@H]1NC(=O)[C@H](Cc2cccc(I)c2)NC(=O)CN(C)C(=O)[C@H](Cc2ccc(Cl)cc2)N(C)C(=O)CN(C)C(=O)CN(C)C(=O)[C@H]([C@@H](C)CC)NC(=O)[C@H](CC(C)C)N(C)C(=O)C[C@@H](C(=O)N2CCCCC2)N(C)C(=O)[C@H](CC(C)C)NC(=O)[C@H](Cc2ccc(C)cc2)N(C)C1=O` [Compound 876] ([NMeL]I[Sar][Sar][NMePhe(4-Cl)][Sar][Phe(3-I)][Nle][NMePhe(4-Me)]L[NMeD]-Piperidide; lactam N-11), the IC50 was more than 500 nM.
As for `CCCC[C@@H]1NC(=O)[C@H](Cc2cccc(I)c2)NC(=O)CN(C)C(=O)[C@H](Cc2ccc(OC)cc2)N(C)C(=O)CN(C)C(=O)CN(C)C(=O)[C@H]([C@@H](C)CC)NC(=O)[C@H](CC(C)C)N(C)C(=O)C[C@@H](C(=O)N2CCCCC2)N(C)C(=O)[C@H](CC(C)C)NC(=O)[C@](C)(Cc2ccccc2)N(C)C1=O` [Compound 125] ([NMeL]I[Sar][Sar][NMeY](Me)[Sar][Phe(3-I)][Nle][X51]L[NMeD]-Piperidide; lactam N-11), the figure is more than 500 nM.
